Data on 39 molecules can be found in US20230364070A1, “PYRROLO[3,2-C]PYRIDIN-4-ONE DERIVATIVES USEFUL IN THE TREATMENT OF CANCER” (Scorpion Therapeutics, Inc., priority 2020, published 2023).

As usually defined, the IC50 is the concentration needed to halve the response being measured.

Common to all, as to format: cell-based
The target in experiment [1] is T1, Ba/F3 cells with EGFR exon 20 ASV Ins V769_D770 (Homo sapiens, UniProt P00533, INS769ASV).
T1 construct: expressed in transfected cells; host or cells: Ba/F3 (murine pro-B cells), retroviral transduction, puromycin selection, IL3-independent pool
Nature of the experiment: EGFR activity: Ba/F3 cell viability (CellTiter-Glo, 72 h), EGFR exon 20 ASV insertion. The following applies: EGFR exon 20 ASV Ins V769_D770, cell viability, read-out: BaF3 ASV IC50. (In general: In ATP-based viability assays light output follows the ATP content of the culture.)

Experiment [2] deals with T2, Ba/F3 cells with EGFR WT (Homo sapiens, UniProt P00533).
T2 construct: expressed in transfected cells; host or cells: Ba/F3 (murine pro-B cells), retroviral transduction, puromycin selection, maintained with EGF
Nature of the experiment: EGFR activity: Ba/F3 cell viability (CellTiter-Glo, 72 h), EGFR WT. The note with it: read-out: BaF3 WT IC50.

Experiment [3] has as its target T3, Ba/F3 cells with EGFR exon 20 NPG Ins D770_N771 (Homo sapiens, UniProt P00533, INS770NPG).
T3 construct: expressed in transfected cells; host or cells: Ba/F3 (murine pro-B cells), retroviral transduction, puromycin selection, IL3-independent pool
Nature of the experiment: EGFR activity: Ba/F3 cell viability (CellTiter-Glo, 72 h), EGFR exon 20 NPG insertion. The following applies: EGFR exon 20 NPG Ins D770_N771, cell viability, read-out: BaF3 NPG IC50.

T1 sequence (P00533 with tags, fused parts or gaps INS769ASV): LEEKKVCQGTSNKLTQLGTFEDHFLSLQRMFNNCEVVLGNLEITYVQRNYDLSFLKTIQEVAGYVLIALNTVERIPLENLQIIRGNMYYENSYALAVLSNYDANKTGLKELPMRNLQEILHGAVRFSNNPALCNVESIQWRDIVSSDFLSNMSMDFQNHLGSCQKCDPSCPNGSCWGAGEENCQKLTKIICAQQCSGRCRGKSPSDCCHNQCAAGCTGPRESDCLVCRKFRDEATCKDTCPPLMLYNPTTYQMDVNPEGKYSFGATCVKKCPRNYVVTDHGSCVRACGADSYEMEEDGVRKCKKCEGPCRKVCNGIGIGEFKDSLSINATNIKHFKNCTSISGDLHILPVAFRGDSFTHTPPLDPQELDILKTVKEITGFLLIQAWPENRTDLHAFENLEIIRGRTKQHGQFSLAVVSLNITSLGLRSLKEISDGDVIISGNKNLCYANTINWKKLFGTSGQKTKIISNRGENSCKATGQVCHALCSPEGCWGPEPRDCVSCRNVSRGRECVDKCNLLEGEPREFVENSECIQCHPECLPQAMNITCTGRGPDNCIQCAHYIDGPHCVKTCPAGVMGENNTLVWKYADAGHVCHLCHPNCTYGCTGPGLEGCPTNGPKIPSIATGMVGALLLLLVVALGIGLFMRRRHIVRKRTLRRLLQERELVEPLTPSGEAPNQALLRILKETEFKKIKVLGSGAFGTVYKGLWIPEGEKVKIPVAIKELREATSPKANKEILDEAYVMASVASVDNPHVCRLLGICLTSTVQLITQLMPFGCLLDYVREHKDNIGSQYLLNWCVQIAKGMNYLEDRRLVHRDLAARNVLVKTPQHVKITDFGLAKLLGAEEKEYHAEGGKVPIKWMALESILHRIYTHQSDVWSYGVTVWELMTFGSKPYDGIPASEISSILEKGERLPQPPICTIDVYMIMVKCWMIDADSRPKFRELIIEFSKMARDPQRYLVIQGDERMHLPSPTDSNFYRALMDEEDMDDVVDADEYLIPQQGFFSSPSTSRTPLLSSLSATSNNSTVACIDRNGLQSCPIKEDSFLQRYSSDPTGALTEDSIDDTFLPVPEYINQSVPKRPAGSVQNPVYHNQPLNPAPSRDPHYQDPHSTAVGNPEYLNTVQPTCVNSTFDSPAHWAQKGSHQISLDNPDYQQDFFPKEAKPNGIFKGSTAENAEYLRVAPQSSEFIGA
T3 sequence (P00533 with tags, fused parts or gaps INS770NPG): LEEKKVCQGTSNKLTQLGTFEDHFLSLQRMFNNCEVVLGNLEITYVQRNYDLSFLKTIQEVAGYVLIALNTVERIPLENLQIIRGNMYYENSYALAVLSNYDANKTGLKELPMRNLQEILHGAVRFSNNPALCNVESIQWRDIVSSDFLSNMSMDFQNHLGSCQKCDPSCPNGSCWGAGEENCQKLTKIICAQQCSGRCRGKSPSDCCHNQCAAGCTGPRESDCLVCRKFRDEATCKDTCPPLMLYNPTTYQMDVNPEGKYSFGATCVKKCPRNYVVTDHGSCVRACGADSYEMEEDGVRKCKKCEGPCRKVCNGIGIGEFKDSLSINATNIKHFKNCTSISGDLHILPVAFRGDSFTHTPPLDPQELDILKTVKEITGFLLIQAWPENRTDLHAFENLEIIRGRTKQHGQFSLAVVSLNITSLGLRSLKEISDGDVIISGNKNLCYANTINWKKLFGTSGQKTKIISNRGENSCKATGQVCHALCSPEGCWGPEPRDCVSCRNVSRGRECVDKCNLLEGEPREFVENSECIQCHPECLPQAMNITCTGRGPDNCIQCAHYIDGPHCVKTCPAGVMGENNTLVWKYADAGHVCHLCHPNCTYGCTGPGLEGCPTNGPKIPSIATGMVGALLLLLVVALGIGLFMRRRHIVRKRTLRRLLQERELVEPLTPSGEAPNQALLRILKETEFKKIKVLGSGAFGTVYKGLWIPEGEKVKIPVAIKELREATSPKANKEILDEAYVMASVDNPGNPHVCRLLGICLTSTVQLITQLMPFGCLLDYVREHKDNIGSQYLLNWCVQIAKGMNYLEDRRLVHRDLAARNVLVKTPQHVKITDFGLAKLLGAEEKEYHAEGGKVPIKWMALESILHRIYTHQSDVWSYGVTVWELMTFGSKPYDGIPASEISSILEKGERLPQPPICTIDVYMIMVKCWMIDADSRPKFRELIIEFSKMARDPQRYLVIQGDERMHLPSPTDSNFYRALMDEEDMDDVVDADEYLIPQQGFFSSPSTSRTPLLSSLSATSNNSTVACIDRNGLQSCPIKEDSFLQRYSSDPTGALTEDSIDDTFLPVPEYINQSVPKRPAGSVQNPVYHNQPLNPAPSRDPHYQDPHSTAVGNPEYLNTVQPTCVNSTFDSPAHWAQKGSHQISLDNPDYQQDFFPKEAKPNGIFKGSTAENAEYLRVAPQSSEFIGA
T2 sequence (P00533 25-1210): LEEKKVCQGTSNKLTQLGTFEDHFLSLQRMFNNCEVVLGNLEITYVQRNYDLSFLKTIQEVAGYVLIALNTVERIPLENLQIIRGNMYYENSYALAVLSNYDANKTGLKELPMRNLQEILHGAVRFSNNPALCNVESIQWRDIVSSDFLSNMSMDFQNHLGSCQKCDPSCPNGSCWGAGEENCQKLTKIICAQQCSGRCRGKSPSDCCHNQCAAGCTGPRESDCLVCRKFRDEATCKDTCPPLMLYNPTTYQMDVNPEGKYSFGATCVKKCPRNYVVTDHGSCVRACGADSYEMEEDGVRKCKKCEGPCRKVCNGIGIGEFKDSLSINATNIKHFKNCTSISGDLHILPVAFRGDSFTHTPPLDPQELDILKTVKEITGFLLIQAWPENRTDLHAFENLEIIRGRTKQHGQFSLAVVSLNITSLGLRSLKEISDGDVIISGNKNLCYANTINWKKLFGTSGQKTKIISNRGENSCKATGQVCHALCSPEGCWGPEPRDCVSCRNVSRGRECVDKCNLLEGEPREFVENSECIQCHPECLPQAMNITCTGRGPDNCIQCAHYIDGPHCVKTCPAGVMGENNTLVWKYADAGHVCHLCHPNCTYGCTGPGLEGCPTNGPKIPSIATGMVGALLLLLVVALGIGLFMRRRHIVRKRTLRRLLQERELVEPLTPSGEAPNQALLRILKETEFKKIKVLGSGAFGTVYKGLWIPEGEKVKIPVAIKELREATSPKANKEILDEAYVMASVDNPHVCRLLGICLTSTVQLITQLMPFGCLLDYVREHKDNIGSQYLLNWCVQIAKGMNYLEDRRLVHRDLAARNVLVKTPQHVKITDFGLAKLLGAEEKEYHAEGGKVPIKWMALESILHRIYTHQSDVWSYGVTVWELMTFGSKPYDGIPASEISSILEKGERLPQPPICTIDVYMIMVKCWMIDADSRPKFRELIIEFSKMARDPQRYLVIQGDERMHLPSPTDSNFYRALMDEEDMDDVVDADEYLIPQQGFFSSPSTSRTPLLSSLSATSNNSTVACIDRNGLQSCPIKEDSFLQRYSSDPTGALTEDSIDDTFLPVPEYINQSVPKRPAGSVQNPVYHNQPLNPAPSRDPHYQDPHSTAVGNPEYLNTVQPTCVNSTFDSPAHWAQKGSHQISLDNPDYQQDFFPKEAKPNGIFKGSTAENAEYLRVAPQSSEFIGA

For `COc1ccccc1C#Cc1cnccc1-c1[nH]c2c(c1Nc1cccc(Cl)c1OC)C(=O)NCC2` [compound 497], the IC50 in experiment [1] is < 0.1 µM; in experiment [2] it was 0.1 to 1 µM.
Consider `COc1cccnc1C#Cc1cnccc1-c1[nH]c2c(c1Nc1cccc(F)c1C)C(=O)NCC2` [compound 503], for which the IC50 in experiment [1] and in experiment [2] was 0.1 to 1 µM in each case.
`C=CC(=O)N1[C@H](C)CC[C@@H]1C#Cc1cnccc1-c1[nH]c2c(c1Nc1cccc(Cl)c1OC)C(=O)NCC2` [compound 238, 3-[(3-chloro-2-methoxyphenyl)amino]-2-(3-{2-[(2R,5R)-5-methyl-1-(prop-2-enoyl)pyrrolidin-2-yl]ethynyl}pyridin-4-yl)-1H,5H,6H,7H-pyrrolo[3,2-c]pyridin-4-one]: the IC50 is < 0.1 µM in experiment [1], < 0.1 µM in experiment [3] and 0.1 to 1 µM in experiment [2].
As to `C=CC(=O)N[C@H](C#Cc1cnccc1-c1[nH]c2c(c1Nc1cccc(Cl)c1OC)C(=O)NCC2)CC` [compound 581], the IC50 in experiment [1] was < 0.1 µM; in experiment [3] it was < 0.1 µM; in experiment [2], 0.1 to 1 µM.
For `CC#CC(=O)N1CCOC[C@@H]1COc1cnccc1-c1[nH]c2c(c1Nc1cccc(F)c1OC)C(=O)NCC2` [compound 293, 2-(3-{[(3R)-4-(but-2-ynoyl)morpholin-3-yl]methoxy}pyridin-4-yl)-3-[(3-fluoro-2-methoxyphenyl)amino]-1H,5H,6H,7H-pyrrolo[3,2-c]pyridin-4-one], the IC50 in experiment [1], in experiment [3] and in experiment [2] was > 1 µM throughout.
Take `Cc1c(F)cccc1Nc1c(-c2ccncc2C#CCN2CCOCC2)[nH]c2c1C(=O)NCC2` [compound 505]: the IC50 in experiment [1] and in experiment [2] was > 1 µM in each case.
Regarding `C=CC(=O)N1CC(F)(F)C[C@H]1C#Cc1cnccc1-c1[nH]c2c(c1Nc1cccc(Cl)c1OC)C(=O)NCC2` [compound 520], the IC50 in experiment [1] and in experiment [2] was < 0.1 µM throughout.
Turning to `COc1c(Cl)cccc1Nc1c(-c2ccncc2C#CC2(OC)COC2)[nH]c2c1C(=O)NCC2` [compound 491], the IC50 is < 0.1 µM in experiment [1] and 0.1 to 1 µM in experiment [2].
As to `COc1c(Cl)cc(F)cc1Nc1c(-c2ccncc2C#CC23CC(CN2C(=O)/C=C/CN(C)C)C3)[nH]c2c1C(=O)NCC2` [compound 438], the IC50 in experiment [1] is < 0.1 µM; in experiment [3], < 0.1 µM; in experiment [2] it was 0.1 to 1 µM.
`C=CC(=O)N1CC(C)(C)C[C@@H]1C#Cc1cnccc1-c1[nH]c2c(c1Nc1cccc(Cl)c1OC)C(=O)NCC2` [compound 235, 3-[(3-chloro-2-methoxyphenyl)amino]-2-(3-{2-[(2R)-4,4-dimethyl-1-(prop-2-enoyl)pyrrolidin-2-yl]ethynyl}pyridin-4-yl)-1H,5H,6H,7H-pyrrolo[3,2-c]pyridin-4-one]: the IC50 in experiment [1], in experiment [3] and in experiment [2] was < 0.1 µM each time.
Turning to `Cc1c(F)cccc1Nc1c(-c2ccncc2C#CC2(C)COC2)[nH]c2c1C(=O)NCC2` [compound 507], the results for the IC50 in experiment [1] and in experiment [2] were 0.1 to 1 µM and > 1 µM, respectively.
As for `COc1c(F)cccc1Nc1c(-c2ccncc2C#C[C@H]2CCC[C@H]2OC)[nH]c2c1C(=O)NCC2` [compound 485], the IC50 in experiment [1] was < 0.1 µM; in experiment [2] it was 0.1 to 1 µM.
`COc1c(Cl)cccc1Nc1c(-c2ccncc2C#CC2CCCC2)[nH]c2c1C(=O)NCC2` [compound 526]: the figures for the IC50 in experiment [1], in experiment [3] and in experiment [2] were < 0.1 µM, < 0.1 µM and 0.1 to 1 µM, respectively.
For the molecule `CC#CC(=O)N1CC[C@H]1C#Cc1cnccc1-c1[nH]c2c(c1Nc1cccc(Cl)c1OC)C(=O)NCC2` [compound 371], the IC50 is < 0.1 µM in experiment [1], < 0.1 µM in experiment [3] and 0.1 to 1 µM in experiment [2].
As for `COc1c(F)cccc1Nc1c(-c2ccncc2C#CC(C)(C)OC)[nH]c2c1C(=O)NCC2` [compound 149], the IC50 in experiment [3] is 0.1 to 1 µM; in experiment [2], > 1 µM.
Take `COc1c(F)cccc1Nc1c(-c2ccncc2C#CC2CCCO2)[nH]c2c1C(=O)NCC2` (single isomer, unassigned) [Compound 148b]: the IC50 is 0.1 to 1 µM in experiment [1] and > 1 µM in experiment [2].
The matching figures for `Cc1c(F)cccc1Nc1c(-c2ccncc2C#CC2CCOC2)[nH]c2c1C(=O)NCC2` (centres unmarked) [compound 508]: 0.1 to 1 µM and > 1 µM.
The matching figures for `COc1ccccc1C#Cc1cnccc1-c1[nH]c2c(c1Nc1cccc(F)c1C)C(=O)NCC2` [compound 501]: < 0.1 µM and 0.1 to 1 µM.
As to `C=CC(=O)NC1(C#Cc2cnccc2-c2[nH]c3c(c2Nc2cccc(Cl)c2OC)C(=O)NCC3)CNC1` [compound 455], the IC50 in experiment [1], in experiment [3] and in experiment [2] was > 1 µM each time.
On to `C=CC(=O)N1CCOC[C@@]1(C)C#Cc1cnccc1-c1[nH]c2c(c1Nc1cccc(F)c1OC)C(=O)NCC2` [compound 632], for which the values for the IC50 in experiment [1], in experiment [3] and in experiment [2] were < 0.1 µM, < 0.1 µM and 0.1 to 1 µM, respectively.
For `C=CC(=O)N1CCOC[C@@]1(C)C#Cc1cnccc1-c1[nH]c2c(c1Nc1cccc(Cl)c1OC)C(=O)NCC2` [compound 634], the IC50 in experiment [1] was < 0.1 µM; in experiment [3], < 0.1 µM; in experiment [2] it was 0.1 to 1 µM.
`C=CC(=O)NC1(C#Cc2cnccc2-c2[nH]c3c(c2Nc2cccc(Cl)c2OC)C(=O)NCC3)CN(C)C1` [compound 410]: the IC50 in experiment [1] was 0.1 to 1 µM; in experiment [3], < 0.1 µM; in experiment [2] it was > 1 µM.
As for `CC#CC(=O)N1CC[C@@H]1COc1cnccc1-c1[nH]c2cc[nH]c(=O)c2c1Nc1cccc(Cl)c1OC` [compound 630], the IC50 in experiment [1] was < 0.1 µM; in experiment [3] it was < 0.1 µM; in experiment [2] it was > 1 µM.
For the molecule `Cc1c(F)cccc1Nc1c(-c2ccncc2C#CC2CCOCC2)[nH]c2c1C(=O)NCC2` [compound 504], the IC50 in experiment [1] was 0.1 to 1 µM; in experiment [2], > 1 µM.
The matching figures for `C=CC(=O)N1CCC1C#Cc1cnccc1-c1[nH]c2c(c1Nc1cccc(F)c1OC)C(=O)NCC2` (centres unmarked) [compound 544]: < 0.1 µM and < 0.1 µM.
The matching figures for `COCC#Cc1cnccc1-c1[nH]c2c(c1Nc1cccc(F)c1C)C(=O)NCC2` [compound 500]: 0.1 to 1 µM and > 1 µM.
Turning to `CC#CC(=O)N1CC[C@@H]1C#Cc1cnccc1-c1[nH]c2c(c1Nc1cccc(Cl)c1OC)C(=O)NCC2` [compound 372], the IC50 in experiment [1] is < 0.1 µM; in experiment [3], < 0.1 µM; in experiment [2], 0.1 to 1 µM.
As to `Cc1c(F)cccc1Nc1c(-c2ccncc2C#CC2CC2)[nH]c2c1C(=O)NCC2` [compound 498], the IC50 is 0.1 to 1 µM in experiment [1] and > 1 µM in experiment [2].
Regarding `COc1c(F)cccc1Nc1c(-c2ccncc2C#C[C@@H]2CCC[C@@H]2OC)[nH]c2c1C(=O)NCC2` [compound 486], the IC50 in experiment [1] was 0.1 to 1 µM; in experiment [2], > 1 µM.
On to `C=CC(=O)N1CCOC[C@]1(C)C#Cc1cnccc1-c1[nH]c2c(c1Nc1cccc(Cl)c1OC)C(=O)NCC2` [compound 461], for which the IC50 in experiment [1] was < 0.1 µM; in experiment [3] it was < 0.1 µM; in experiment [2], 0.1 to 1 µM.
As to `COc1c(Cl)cccc1Nc1c(-c2ccncc2C#CC2CCC2)[nH]c2c1C(=O)NCC2` [compound 525], the IC50 was < 0.1 µM in experiment [1] and > 1 µM in experiment [2].
The matching figures for `COC(C)C#Cc1cnccc1-c1[nH]c2c(c1Nc1cccc(F)c1C)C(=O)NCC2` (centres unmarked) [compound 524]: 0.1 to 1 µM and > 1 µM.
For `COc1c(F)cccc1Nc1c(-c2ccncc2C#C[C@@H]2CCCO2)[nH]c2c1C(=O)NCC2` (single isomer, unassigned) [Compound 148a] the same measures were 0.1 to 1 µM and > 1 µM.
As to `COc1c(F)cccc1Nc1c(-c2ccncc2OCCOC2CC2)[nH]c2c1C(=O)NCC2` [Compound 135, 2-(3-(2-cyclopropoxyethoxy)pyridin-4-yl)-3-((3-fluoro-2-methoxyphenyl)amino)-1,5,6,7-tetrahydro-4H-pyrrolo[3,2-c]pyridin-4-one], the IC50 in experiment [3] and in experiment [2] was > 1 µM each time.
Consider `COc1c(Cl)cccc1Nc1c(-c2ccncc2C#CC2CC(F)(F)C2)[nH]c2c1C(=O)NCC2` [compound 548], for which the values for the IC50 in experiment [1] and in experiment [2] were 0.1 to 1 µM and > 1 µM, respectively.
The matching figures for `Cc1c(F)cccc1Nc1c(-c2ccncc2C#CC2COC2)[nH]c2c1C(=O)NCC2` [compound 509]: 0.1 to 1 µM and > 1 µM.
Consider `COc1c(Cl)cccc1Nc1c(-c2ccncc2OC[C@@H]2CCCN2S(C)(=O)=O)[nH]c2c1C(=O)NCC2` [Compound 142a, (S)-3-((3-chloro-2-methoxyphenyl)amino)-2-(3-((1-(methylsulfonyl)pyrrolidin-2-yl)methoxy)pyridin-4-yl)-1,5,6,7-tetrahydro-4H-pyrrolo[3,2-c]pyridin-4-one], for which the concentration for half-maximal inhibition (IC50) in experiment [3] and in experiment [2] was 0.1 to 1 µM in each case.
In the case of `COc1ccc(C#Cc2cnccc2-c2[nH]c3c(c2Nc2cccc(F)c2C)C(=O)NCC3)cn1` [compound 502], the IC50 in experiment [1] was 0.1 to 1 µM; in experiment [2] it was > 1 µM.
For `Cc1c(F)cccc1Nc1c(-c2ccncc2C#Cc2cnn(C)c2)[nH]c2c1C(=O)NCC2` [compound 506] the same measures were 0.1 to 1 µM and > 1 µM.
